“Also recorded” adds a separate entry of the source. Structures can show the parent of a compound that is named as a salt. Where two headings read alike, the source gives them in different places. Marks after values point to notes of the source that are not given here.
Test system: subjects with myelofibrosis
Conditions: for Abdominal pain Severity Grade 1-2, subjects n (%) / Abdominal pain Severity Grade 3-4, subjects n (%) / Alanine aminotransferase increased Severity Grade 1-2, subjects n (%) / Alanine aminotransferase increased Severity Grade 3-4, subjects n (%) / Anorexia Severity Grade 1-2, subjects n (%) / Anorexia Severity Grade 3-4, subjects n (%) / Aspartate aminotransferase increased Severity Grade 1-2, subjects n (%) / Aspartate aminotransferase increased Severity Grade 3-4, subjects n (%) / Blood alkaline phosphatase increased Severity Grade 1-2, subjects n (%) / Blood alkaline phosphatase increased Severity Grade 3-4, subjects n (%) / Blood creatinine increased Severity Grade 1-2, subjects n (%) / Blood creatinine increased Severity Grade 3-4, subjects n (%) / Diarrhea Severity Grade 1-2, subjects n (%) / Diarrhea Severity Grade 3-4, subjects n (%) / Dry skin Severity Grade 1-2, subjects n (%) / Dry skin Severity Grade 3-4, subjects n (%) / Edema peripheral Severity Grade 1-2, subjects n (%) / Edema peripheral Severity Grade 3-4, subjects n (%) / Hyperlipasemia Severity Grade 1-2, subjects n (%) / Hyperlipasemia Severity Grade 3-4, subjects n (%) / Hypocalcemia Severity Grade 1-2, subjects n (%) / Hypocalcemia Severity Grade 3-4, subjects n (%) / Nausea Severity Grade 1-2, subjects n (%) / Nausea Severity Grade 3-4, subjects n (%) / Skin exfoliation Severity Grade 1-2, subjects n (%) / Skin exfoliation Severity Grade 3-4, subjects n (%) / Vomiting Severity Grade 1-2, subjects n (%) / Vomiting Severity Grade 3-4, subjects n (%): Table 9: AE at least possibly related to TG101348; for Neutropenia Severity Grade 1-2, subjects n (%) / Neutropenia Severity Grade 3-4, subjects n (%) / Thrombocytopenia Severity Grade 1-2, subjects n (%) / Thrombocytopenia Severity Grade 3-4, subjects n (%) / Anemia Severity Grade 1-2, subjects n (%) / Anemia Severity Grade 3-4, subjects n (%): Table 10: at least possibly related
[1] = Table 5: treatment-emergent non-hematologic laboratory finding, MTD subjects (N = 40)
[2] = All Subjects, not transfusion dependent at study entry (n = 37)
[3] = MTD Cohort, not transfusion dependent at study entry (n = 24)
[4] = overall, at least possibly related
[5] = subject 106-024, 800/680 mg/day, onset day 87, stopped temporarily, Recovered/resolved

Cc1cnc(Nc2ccc(OCCN3CCCC3)cc2)nc1Nc1cccc(S(=O)(=O)NC(C)(C)C)c1 [TG101348, N-tert-butyl-3-[(5-methyl-2-{[4-(2-pyrrolidin-1-ylethoxy)phenyl]amino}pyrimidin-4-yl)amino]benzenesulfonamide dihydrochloride monohydrate]
Hyperkalemia Grade 4, subjects n (%) [1]: 1 (3%) | Hyperlipasemia Grade 2, subjects n (%) [1]: 4 (10%) | Hyperlipasemia Grade 3, subjects n (%) [1]: 3 (8%) | Hyperlipasemia Grade 4, subjects n (%) [1]: 2 (5%) | Hypocalcemia Grade 2, subjects n (%) [1]: 8 (20%) | Hypocalcemia Grade 3, subjects n (%) [1]: 3 (8%) | Hypocalcemia Grade 4, subjects n (%) [1]: 0 | Abdominal pain Severity Grade 1-2, subjects n (%) (All Subjects (n = 59)): 6 (10.2%) | Abdominal pain Severity Grade 3-4, subjects n (%) (All Subjects (n = 59)): 0 | Alanine aminotransferase increased Severity Grade 1-2, subjects n (%) (All Subjects (n = 59)): 11 (18.6%) | Alanine aminotransferase increased Severity Grade 3-4, subjects n (%) (All Subjects (n = 59)): 4 (6.8%) | Anorexia Severity Grade 1-2, subjects n (%) (All Subjects (n = 59)): 8 (13.6%) | Anorexia Severity Grade 3-4, subjects n (%) (All Subjects (n = 59)): 0 | Aspartate aminotransferase increased Severity Grade 1-2, subjects n (%) (All Subjects (n = 59)): 15 (25.4%) | Aspartate aminotransferase increased Severity Grade 3-4, subjects n (%) (All Subjects (n = 59)): 1 (1.7%) | Blood alkaline phosphatase increased Severity Grade 1-2, subjects n (%) (All Subjects (n = 59)): 10 (16.9%) | Blood alkaline phosphatase increased Severity Grade 3-4, subjects n (%) (All Subjects (n = 59)): 0 | Blood creatinine increased Severity Grade 1-2, subjects n (%) (All Subjects (n = 59)): 14 (23.7%) | Blood creatinine increased Severity Grade 3-4, subjects n (%) (All Subjects (n = 59)): 0 | Diarrhea Severity Grade 1-2, subjects n (%) (All Subjects (n = 59)): 32 (54.2%) | Diarrhea Severity Grade 3-4, subjects n (%) (All Subjects (n = 59)): 6 (10.2%) | Dry skin Severity Grade 1-2, subjects n (%) (All Subjects (n = 59)): 6 (10.2%) | Dry skin Severity Grade 3-4, subjects n (%) (All Subjects (n = 59)): 0 | Edema peripheral Severity Grade 1-2, subjects n (%) (All Subjects (n = 59)): 6 (10.2%) | Edema peripheral Severity Grade 3-4, subjects n (%) (All Subjects (n = 59)): 0 | Hyperlipasemia Severity Grade 1-2, subjects n (%) (All Subjects (n = 59)): 10 (16.9%) | Hyperlipasemia Severity Grade 3-4, subjects n (%) (All Subjects (n = 59)): 6 (10.2%) | Hypocalcemia Severity Grade 1-2, subjects n (%) (All Subjects (n = 59)): 7 (11.9%) | Hypocalcemia Severity Grade 3-4, subjects n (%) (All Subjects (n = 59)): 1 (1.7%) | Nausea Severity Grade 1-2, subjects n (%) (All Subjects (n = 59)): 39 (66.1%) | Nausea Severity Grade 3-4, subjects n (%) (All Subjects (n = 59)): 2 (3.4%) | Skin exfoliation Severity Grade 1-2, subjects n (%) (All Subjects (n = 59)): 8 (13.6%) | Skin exfoliation Severity Grade 3-4, subjects n (%) (All Subjects (n = 59)): 0 | Vomiting Severity Grade 1-2, subjects n (%) (All Subjects (n = 59)): 32 (54.2%) | Vomiting Severity Grade 3-4, subjects n (%) (All Subjects (n = 59)): 2 (3.4%) | Abdominal pain Severity Grade 1-2, subjects n (%) (MTD Cohort (n = 40)): 4 (10.0%) | Abdominal pain Severity Grade 3-4, subjects n (%) (MTD Cohort (n = 40)): 0 | Alanine aminotransferase increased Severity Grade 1-2, subjects n (%) (MTD Cohort (n = 40)): 9 (22.5%) | Alanine aminotransferase increased Severity Grade 3-4, subjects n (%) (MTD Cohort (n = 40)): 3 (7.5%) | Anorexia Severity Grade 1-2, subjects n (%) (MTD Cohort (n = 40)): 6 (15.0%) | Anorexia Severity Grade 3-4, subjects n (%) (MTD Cohort (n = 40)): 0 | Aspartate aminotransferase increased Severity Grade 1-2, subjects n (%) (MTD Cohort (n = 40)): 13 (32.5%) | Aspartate aminotransferase increased Severity Grade 3-4, subjects n (%) (MTD Cohort (n = 40)): 1 (2.5%) | Blood alkaline phosphatase increased Severity Grade 1-2, subjects n (%) (MTD Cohort (n = 40)): 9 (22.5%) | Blood alkaline phosphatase increased Severity Grade 3-4, subjects n (%) (MTD Cohort (n = 40)): 0 | Blood creatinine increased Severity Grade 1-2, subjects n (%) (MTD Cohort (n = 40)): 11 (27.5%) | Blood creatinine increased Severity Grade 3-4, subjects n (%) (MTD Cohort (n = 40)): 0 | Diarrhea Severity Grade 1-2, subjects n (%) (MTD Cohort (n = 40)): 25 (62.5%) | Diarrhea Severity Grade 3-4, subjects n (%) (MTD Cohort (n = 40)): 5 (12.5%) | Dry skin Severity Grade 1-2, subjects n (%) (MTD Cohort (n = 40)): 6 (15%) | Dry skin Severity Grade 3-4, subjects n (%) (MTD Cohort (n = 40)): 0 | Edema peripheral Severity Grade 1-2, subjects n (%) (MTD Cohort (n = 40)): 4 (10.0%) | Edema peripheral Severity Grade 3-4, subjects n (%) (MTD Cohort (n = 40)): 0 | Hyperlipasemia Severity Grade 1-2, subjects n (%) (MTD Cohort (n = 40)): 9 (22.5%) | Hyperlipasemia Severity Grade 3-4, subjects n (%) (MTD Cohort (n = 40)): 6 (15.0%) | Hypocalcemia Severity Grade 1-2, subjects n (%) (MTD Cohort (n = 40)): 6 (15.0%) | Hypocalcemia Severity Grade 3-4, subjects n (%) (MTD Cohort (n = 40)): 1 (2.5%) | Nausea Severity Grade 1-2, subjects n (%) (MTD Cohort (n = 40)): 31 (77.5%) | Nausea Severity Grade 3-4, subjects n (%) (MTD Cohort (n = 40)): 2 (5.0%) | Skin exfoliation Severity Grade 1-2, subjects n (%) (MTD Cohort (n = 40)): 8 (20.0%) | Skin exfoliation Severity Grade 3-4, subjects n (%) (MTD Cohort (n = 40)): 0 | Vomiting Severity Grade 1-2, subjects n (%) (MTD Cohort (n = 40)): 27 (67.5%) | Vomiting Severity Grade 3-4, subjects n (%) (MTD Cohort (n = 40)): 1 (2.5%) | Neutropenia Severity Grade 1-2, subjects n (%) (All Subjects (n = 59)): 2 (3.4%) | Neutropenia Severity Grade 3-4, subjects n (%) (All Subjects (n = 59)): 6 (10.2%) | Thrombocytopenia Severity Grade 1-2, subjects n (%) (All Subjects (n = 59)): 10 (17.0%) | Thrombocytopenia Severity Grade 3-4, subjects n (%) (All Subjects (n = 59)): 14 (23.7%) | Anemia Severity Grade 1-2, subjects n (%) [2]: 3 (8.1%) | Anemia Severity Grade 3-4, subjects n (%) [2]: 13 (35.1%) | Neutropenia Severity Grade 1-2, subjects n (%) (MTD Cohort (n = 40)): 2 (5.0%) | Neutropenia Severity Grade 3-4, subjects n (%) (MTD Cohort (n = 40)): 4 (10.0%) | Thrombocytopenia Severity Grade 1-2, subjects n (%) (MTD Cohort (n = 40)): 8 (20.0%) | Thrombocytopenia Severity Grade 3-4, subjects n (%) (MTD Cohort (n = 40)): 11 (27.5%) | Anemia Severity Grade 1-2, subjects n (%) [3]: 2 (8.3%) | Anemia Severity Grade 3-4, subjects n (%) [3]: 13 (54.2%) | Grade 3/4 neutropenia considered related to TG101348, subjects (all subjects): 10% | Grade 3/4 thrombocytopenia considered related to TG101348, subjects (all subjects): 24% | Dose-limiting toxicity (DLT) (at 800 mg/day, dihydrochloride monohydrate): asymptomatic grade 3 or 4 amylasemia/lipasemia that was reversible; also recorded: asymptomatic grade 3 or 4 hyperamylasemia (with or without hyperlipasemia) that was reversible | Safety findings with continued dosing beyond 6 cycles (at data cutoff, extension study): no unique safety findings have emerged | Cytokine rebound upon discontinuation of TG101348 (discontinued without prior dose reduction or tapering, dihydrochloride monohydrate): absence of immediate adverse cytokine-rebound phenomenon; also recorded: did not experience “cytokine rebound” | Discontinuation because of adverse events during the extension study, number of subjects (following a total of 24 to 46 weeks on therapy): 3 | Subjects with disease progression (hepatosplenomegaly/ascites, accelerated myelofibrosis, leukemic transformation): Three | Emergence of transfusion requirement, subjects (initiated treatment at 680 mg/day): 72% | Emergence of transfusion requirement, subjects (initiated treatment at 240-520 mg/day): 33% | Grade 3/4 anemia considered related to TG101348, subjects (of 37 subjects not transfusion dependent at baseline): 35% | Maximum tolerated dose (MTD) (oral once daily, dose escalation 30 to 800 mg/day): 680 mg/day | Grades 3/4 asymptomatic increase in ALT, subjects (overall): 7% | Grades 3/4 asymptomatic increase in AST, subjects (overall): 2% | Grades 3/4 asymptomatic increase in serum lipase, subjects (overall): 10% | Grades 3/4 increase in alkaline phosphatase, subjects (overall): 0% | Grades 3/4 increase in creatinine, subjects (overall): 0% | Grade 4 nausea, diarrhea and vomiting (overall and MTD cohort): no Grade 4 events | Grade 3 diarrhea, subjects [4]: 10% | Grade 3 nausea, subjects [4]: 3% | Grade 3 vomiting, subjects [4]: 3% | Tolerability (patients with myelofibrosis, dihydrochloride monohydrate): generally well tolerated | Serious adverse event Neutropenia: CTCAE Severity Grade (subject 101-047, 680/680 mg/day, onset day 52, stopped temporarily, Recovered/resolved): 2 | Serious adverse event Depression: CTCAE Severity Grade (subject 104-015, 360/520 mg/day, onset day 256, permanently discontinued, Not recovered/not resolved, died (suicide) approximately 12 weeks after discontinuation): 3* | Serious adverse event Hyperlipasemia: CTCAE Severity Grade (subject 105-013, 240/0 mg/day, onset day 356, action none, Recovered/resolved): 4 | Serious adverse event Thrombocytopenia: CTCAE Severity Grade (subject 105-013, 240/360 mg/day, onset day 247, permanently discontinued, Not recovered/not resolved): 4 | Serious adverse event Thrombocytopenia: CTCAE Severity Grade (subject 105-013, starting dose/dose at event 240/360 mg/day, onset day 215, action none, Recovered/resolved): 4 | Serious adverse event Gallbladder pain: CTCAE Severity Grade (subject 105-056, 680/520 mg/day, onset day 95, stopped temporarily, Recovered/resolved with sequelae): 3 | Serious adverse event Cerebrovascular accident: CTCAE Severity Grade (subject 105-056, 680/680 mg/day, onset day 22, stopped temporarily, Recovered/resolved): 4 | Serious adverse event Cardiac arrest: CTCAE Severity Grade (subject 105-059, 680/360 mg/day, onset day 42, permanently discontinued, Fatal): 5 | Serious adverse event Hyperlipasemia: CTCAE Severity Grade (subject 105-059, 680/520 mg/day, onset day 28, stopped temporarily, Recovered/resolved): 3 | Serious adverse event Hyperlipasemia: CTCAE Severity Grade (subject 105-059, 680/680 mg/day, onset day 8, stopped temporarily, Recovered/resolved): 3 | Serious adverse event Dehydration: CTCAE Severity Grade (subject 106-024, 800/400 mg/day, onset day 474, action none, Recovered/resolved): 3 | Serious adverse event Tumor lysis syndrome: CTCAE Severity Grade (subject 106-024, 800/440 mg/day, onset day 366, stopped temporarily, Recovered/resolved): 3 | Serious adverse event Dehydration: CTCAE Severity Grade [5]: 2 | Serious adverse event Diarrhea: CTCAE Severity Grade [5]: 3 | Serious adverse event Nausea: CTCAE Severity Grade [5]: 2 | Serious adverse event Vomiting: CTCAE Severity Grade [5]: 2 | Serious adverse event Pleuritic pain: CTCAE Severity Grade (subject 106-033, 680/680 mg/day, onset day 8, stopped temporarily, Recovered/resolved): 2 | Serious adverse event Dehydration: CTCAE Severity Grade (subject 106-045, 680/440 mg/day, onset day 170, stopped temporarily, Recovered/resolved): 3
